Entries after “also recorded” stand apart in the source; their conditions may differ. Blank lines part the entries; values can stand above or below the compound they belong to.
Tests used:
[1] = system: HepG2 human liver cancer cell line; assay: MTT cytotoxicity assay in HepG2 cells; type: cell-based; settings: 24 h treatment, mean ± SD; for IC50: Homo sapiens
Description: (§1) The cyto-toxicity activity was measured in vitro in HepG2, Jurkat, and HEK 293 cells using the MTT […] colorimetric assay. For comparison, 5-Fluorouracil (5-FU) was used as a standard anti-cancer drug. Treatment with dimethylsulfoxide (DMSO) was used as a control for the cancer cells.
(§2) The stock concentration of the entire compound in DMSO was 10 mM and this concentration was used to prepare the working dilution. The final DMSO concentration used in the experiments was ≤0.5% as the working concentration. Human liver cancer cell lines (HepG2), human leukemia cell line (Jurkat), and human embryonic kidney cell line (HEK293) cells were cultured in high glucose Dulbecco’s Modified Eagle Medium (DMEM: Life technologies cat #11995073) supplemented with 10% Fetal bovine serum (FBS: Life technologies cat #16000044) in a humidified incubator with 5% CO2 at 37 °C. Around 2 ×10^3 cells were seeded in each well of a 24-well cell culture plate and were allowed to adhere and grow for 24 h. The Jurkat cells grow in suspension so they were cultured and allowed to grow overnight before the addition of compounds. The compounds in serial dilutions (1, 3, 15, 45, 100, and 300 μM) were added after 24 h of culture and the cells were cultured for another 24 h at 37 °C. The cell viability was determined in each experiment using MTT 1-(4,5-dimethylthiazol-2-yl)-3,5-diphenylformazan colorimetric assay. Briefly, the treated or untreated cells were trypsenized and centrifuged, and the resulting pellet was re-suspended in 100 μL of DMEM serum-free medium and incubated at 37 °C for 2 h. After incubation, 20 μL of MTT solution (5 mg/mL in PBS: Sigma Aldrich cat #M2003) was added to each well and further incubated for 2 h. The plate was centrifuged at […] for 10 min then the medium was removed from each well and 2-propanol containing 0.04 M HCl was added to dissolve the formazan produced in the cells. The optical density of the formazan product in solution was measured with a microplate reader at 540 nm. The experiment was conducted in triplicate. Data were calculated as percent of cell viability by the following formula:
(§3) % cell viability = (Mean absorbance in test wells/Mean absorbance in control wells) × 100 (1)
(§4) The IC50 values were calculated from the means of six different concentrations by Bio Data Fit 1.02 using the software Bio Tool Kit (Version 300; Chang Bioscience Inc., Castro Valley, CA, USA) and online program http://ic50.tk/index.html.

[2] = system: HEK293 human embryonic kidney cell line; assay: MTT cytotoxicity assay in normal HEK293 cells; type: cell-based; settings: 24 h treatment, mean ± SD; for IC50: Homo sapiens
Description: as §1, §2, §3, §4

[3] = system: Jurkat human leukaemia cell line; assay: MTT cytotoxicity assay in Jurkat cells; type: cell-based; settings: 24 h treatment, mean ± SD
Description: as §1, §2, §3, §4

[4] = system: human tumour cell lines (HepG2 and Jurkat); assay: MTT assay, summary over the tested human tumour cell lines; type: cell-based; settings: summary over HepG2 and Jurkat cells
Description: as §1, §2, §3, §4

SMILES: CCCC(CCC)C(=O)O [Compound 1, Valproic acid, reference compound]
IC50 (μM) HepG2 [1]: did not show promising anti-cancer activity | IC50 [1]: 69.7 ± 40.8 µM | IC50 [2]: 63 ± 38.2 µM | IC50 ([3]; Homo sapiens, Jurkat, 24 h): 79.4 ± 40.7 µM

SMILES: CCCC(CCC)C(=O)NN [Compound 2, Valproic Hydrazide]
IC50 (μM) HepG2 [1]: did not show promising anti-cancer activity | IC50 [1]: 68.5 ± 37.1 µM | IC50 [2]: > 100 µM | IC50 ([3]; Homo sapiens, Jurkat, 24 h): > 100 µM

SMILES: O=C1Nc2ccccc2C1=O [Compound 3a]
IC50 (μM) HepG2 [1]: no anti-cancer activity | IC50 [1]: > 100 µM | IC50 [2]: 16.7 ± 50 µM | IC50 ([3]; Homo sapiens, Jurkat, 24 h): > 100 µM

SMILES: CN1C(=O)C(=O)c2ccccc21 [Compound 3e]
IC50 [1]: 2.82 µM | IC50 (μM) HEK293 [2]: no activity | IC50 [2]: > 100 µM | IC50 ([3]; Homo sapiens): 7.13 µM | IC50 [4]: 3 to 7 µM

IC50 [4]: 3 to 7 µM
SMILES: O=C1C(=O)N(Cc2ccccc2)c2ccccc21 [Compound 3f]
IC50 [1]: 3.13 µM | IC50 (μM) HEK293 [2]: no activity | IC50 [2]: > 100 µM | IC50 (μM) Jurkat [3]: strong activity | IC50 ([3]; Homo sapiens, Jurkat, 24 h): 3.13 µM

SMILES: CC(=O)N1C(=O)C(=O)c2ccccc21 [Compound 3h, N-acetylisatin]
IC50 (μM) HepG2 [1]: no anti-cancer activity | IC50 [1]: > 100 µM | IC50 [2]: > 100 µM | IC50 ([3]; Homo sapiens, Jurkat, 24 h): > 100 µM

IC50 [4]: 3 to 7 µM | melting point: 175 to 176 °C
SMILES: CCCC(CCC)C(=O)N/N=C1\C(=O)Nc2ccccc21 [Compound 4a, (Z) N′-(2-Oxoindolin-3-ylidene)-2-propylpentane Hydrazide]
IC50 (μM) HepG2 [1]: inactive; also recorded: no anti-cancer activity | IC50 [1]: > 100 µM | IC50 (μM) HEK293 [2]: inactive | IC50 [2]: > 100 µM | IC50 [3]: 3.15 µM | IC50 (μM) Jurkat [3]: strong activity | IC50 ([3]; Homo sapiens, Jurkat, 24 h): 3.14 µM

melting point: 172 to 173 °C
SMILES: CCCC(CCC)C(=O)N/N=C1\C(=O)Nc2ccc(Br)cc21 [Compound 4b, (Z) N′-(5-Bromo-2-oxoindolin-3-ylidene)-2-propylpentane Hydrazide]
IC50 (μM) HepG2 [1]: no anti-cancer activity | IC50 [1]: > 100 µM | IC50 [2]: 26.1 ± 31.3 µM | IC50 ([3]; Homo sapiens, Jurkat, 24 h): > 100 µM

IC50 [4]: 3 to 7 µM | melting point: 154 to 156 °C
SMILES: CCCC(CCC)C(=O)N/N=C1\C(=O)Nc2ccc(Cl)cc21 [Compound 4c, (Z) N′-(5-Chloro-2-oxoindolin-3-ylidene)-2-propylpentane Hydrazide]
IC50 [1]: 4.39 µM | IC50 [2]: 4.77 µM | IC50 (μM) Jurkat [3]: strong activity | IC50 ([3]; Homo sapiens, Jurkat, 24 h): 2.9 µM

melting point: 180 to 182 °C
SMILES: CCCC(CCC)C(=O)N/N=C1\C(=O)Nc2ccc(F)cc21 [Compound 4d, (Z) N′-(5-Fluoro-2-oxoindolin-3-ylidene)-2-propylpentane Hydrazide]
IC50 [1]: > 100 µM | IC50 [2]: > 100 µM | IC50 ([3]; Homo sapiens, Jurkat, 24 h): > 100 µM

IC50 [4]: 3 to 7 µM | melting point: 154 to 156 °C
SMILES: CCCC(CCC)C(=O)N/N=C1\C(=O)N(C)c2ccccc21 [Compound 4e, (Z) N′-(1-Methyl-2-oxoindolin-3-ylidene)-2-propylpentane Hydrazide]
IC50 [1]: 7.61 µM | IC50 (μM) HEK293 [2]: no activity | IC50 [2]: > 100 µM | IC50 ([3]; Homo sapiens, Jurkat, 24 h): 3.19 µM

melting point: 170 to 172 °C
SMILES: CCCC(CCC)C(=O)N/N=C1\C(=O)N(Cc2ccccc2)c2ccccc21 [Compound 4f, (Z) N′-(1-Benzyl-2-oxoindolin-3-ylidene)-2-propylpentane Hydrazide]
IC50 (μM) HepG2 [1]: no anti-cancer activity | IC50 [1]: > 100 µM | IC50 [2]: > 100 µM | IC50 ([3]; Homo sapiens, Jurkat, 24 h): > 100 µM

SMILES: CCCC(CCC)C(=O)N/N=C1\C(=O)N(CCBr)c2ccccc21 [Compound 4g, (Z)-N′-(1-(2-Bromoethyl)-2-oxoindolin-3-ylidene)-2-propylpentane Hydrazide]
IC50 (μM) HepG2 [1]: no anti-cancer activity | IC50 [1]: > 100 µM | IC50 [2]: 45.4 ± 48.9 µM | IC50 ([3]; Homo sapiens): > 100 µM | melting point: 90 to 91 °C

melting point: 180 to 181 °C
SMILES: CCCC(CCC)C(=O)NNC(=O)C(=O)c1ccccc1NC(C)=O [Compound 4h, N-(2-(2-Oxo-2-(2-(2-propylpentanoyl)hydrazinyl)acetyl)phenyl) Acetamide]
IC50 (μM) HepG2 [1]: no anti-cancer activity | IC50 [1]: > 100 µM | IC50 [2]: > 100 µM | IC50 ([3]; Homo sapiens, Jurkat, 24 h): > 100 µM

IC50 [4]: 32 to 50 µM
SMILES: O=c1[nH]cc(F)c(=O)[nH]1 [Compound 5-FU, 5-Fluorouracil, reference compound]
IC50 [1]: 32.1 ± 48.1 µM | IC50 [2]: > 100 µM | IC50 ([3]; Homo sapiens, Jurkat, 24 h): 51.2 ± 47.4 µM

Source: article PMC6332339, “Synthesis, Characterization, and Anti-Cancer Activity of Some New N′-(2-Oxoindolin-3-ylidene)-2-propylpentane hydrazide-hydrazones Derivatives” (Molecules, 2015)
